Results reported in patent US10071965B2, “Pyridone FabI inhibitors and uses thereof” (priority 2015, dated 2018).
In brackets after ≈: the same amount, converted by molar mass. Several values for one entry are separate records, joined by “and”; a condition that tells them apart may be missing. Equal entries are not always repeated. Where two headings read alike, the source gives them in different places.

How the values were obtained:
ecFabI = ecFabI (Escherichia coli (strain K12), UniProt P0AEK4); assay: ecFabI inhibition kinetics; type: biochemical
E. coli MG1655 ΔacrAB = assay: microbe, parasite or virus in culture; type: cell-based, Escherichia coli; details: Escherichia coli, MG1655
MRSA strain BAA1762 = assay: Neutropenic mouse thigh infection model; type: in vivo, Swiss Webster mice; details: 100 mg/kg dose, MRSA BAA1762, neutropenic mouse
in vivo = details: female, ICR, mouse, ip, 200 mg/kg
S. aureus RN4220 = assay: MIC microbroth dilution, S. aureus RN4220; type: cell-based, Staphylococcus aureus; details: for MIC: Staphylococcus aureus
saFabI [1] = biological target: T1, saFabI (Staphylococcus aureus (strain MRSA252), UniProt Q6GI75); assay: Jump dilution assay with saFabI; type: biochemical; details: preincubation with NADP+ and saFabI, jump dilution; read-out: residence time tR
[2] = biological target: M. tuberculosis enoyl-ACP reductase InhA (Mycobacterium tuberculosis (strain ATCC 25618 / H37Rv), UniProt P9WGR1); assay: InhA inhibition kinetics; type: biochemical
M. tuberculosis H37Rv = assay: MIC microbroth dilution, M. tuberculosis H37Rv; type: cell-based; details: Mycobacterium tuberculosis, H37RV, read-out: Mycobacterium tuberculosis MIC (μg/mL) H37Rv
bpFabV = bpFabV (Burkholderia pseudomallei, UniProt Q63TE9); type: biochemical; details: read-out: Burkholderia pseudomallei IC50 (μM), bpFabV
YpFabV = YpFabV (Yersinia pestis, UniProt Q8Z9U1); assay: biochemical
saFabI [3] = biological target: T1, saFabI; assay: saFabI inhibition kinetics; type: biochemical
F. tularensis LVS = assay: microbe, parasite or virus in culture; type: cell-based; details: Francisella tularensis, read-out: Francisella tularensis MIC (μg/mL) LVS, 2-pyridones table
[4] = biological target: Francisella tularensis FabI (Francisella tularensis subsp. tularensis (strain SCHU S4 / Schu 4), UniProt Q5NGQ3); assay: biochemical
bpFabI = bpFabI (Burkholderia pseudomallei, UniProt A0A0H3HP34); assay: biochemical
Bt38 = assay: microbe, parasite or virus in culture; type: cell-based; details: Burkholderia pseudomallei, read-out: Burkholderia pseudomallei MIC (μg/mL) Bt38
[5] = [S]/KS = 0.19, binds E-NAD+ binary complex, single point progress curve analysis, read-out: Ki^app
[6] = binds E-NAD+ binary complex, single point progress curve analysis, read-out: Ki
[7] = RN4220, S. aureus RN4220, read-out: MIC
[8] = Ki^app (nM), saFabI, [S]/KS = 2
[9] = Staphylococcus aureus Ki (in brackets under IC50), 2-pyridones table
[10] = RN4220, 2-pyridones table, read-out: Staphylococcus aureus MIC (μg/mL) RN4220

CCCCCCc1ccc(Oc2ccccc2)c(O)c1 [PT04, 5-hexyl-2-phenoxyphenol, reference compound]
Ki (ecFabI; [5]): 32.2 nM | Ki (ecFabI; [6]): 0.2 nM | MIC (E. coli MG1655 ΔacrAB): 14.8 µM (≈ 4 µg/mL) | decrease of bacterial burden in the infected thigh (MRSA strain BAA1762): 0.9 log cfu/g tissue | AUC(0-t) (in vivo): 11.8 µg·h/mL | Cmax (in vivo): 5.1 µg/mL | Tmax (in vivo): 1 h | half-life (in vivo): 4.5 h

Oc1ccccc1Oc1ccccc1 [PT51, reference compound]
MIC (S. aureus RN4220; [7]): 687 µM

Oc1cc(Cl)ccc1Oc1ccccc1 [PT52]
Ki (ecFabI; [5]): 26.9 nM | Ki (ecFabI; [6]): 0.1 nM | MIC (E. coli MG1655 ΔacrAB): 0.1 µM (≈ 0.0221 µg/mL) | residence time (saFabI [1]): 30 min

Cc1ccc(Oc2ccccc2)c(O)c1 [PT53, reference compound]
MIC (S. aureus RN4220; [7]): 20 µM

Oc1cc(F)ccc1Oc1ccccc1 [PT55]
Ki (ecFabI; [5]): 92.6 nM | Ki (ecFabI; [6]): 1.1 nM | MIC (E. coli MG1655 ΔacrAB): 1.2 µM (≈ 0.245 µg/mL)

Cn1cc(Oc2ccc([N+](=O)[O-])cc2)c(=O)cc1CCl [PT151]
Mycobacterium tuberculosis enzyme, inhibition at 1 μM ([2]; at 1 μM, [E] = 50 nM): No

Cc1cc([N+](=O)[O-])ccc1Oc1cn(C)c(CCl)cc1=O [PT152]
IC50 [2]: 2.25 µM | MIC (M. tuberculosis H37Rv; 4-pyridones table): 12.5 µg/mL (≈ 40.5 µM)

CCCCCCc1cc(=O)c(Oc2ccc(N)cc2)cn1C [PT157]
IC50 [2]: 0.424 µM | MIC (M. tuberculosis H37Rv; 4-pyridones table): 50 µg/mL (≈ 166 µM) | IC50 (bpFabV): 1 µM and 0.87 µM | IC50 (YpFabV): 0.13 µM

CCCCCCc1cc(=O)c(Oc2ccccc2C#N)cn1C [PT159]
Ki (saFabI [3]; Ki (nM), saFabI): 11 ± 0.9 nM | Ki (saFabI [3]; [8]): 41 ± 3.4 nM | Ki (saFabI [3]; Staphylococcus aureus Ki (nM), 4-pyridones table): 11 nM | IC50 [2]: 0.629 µM | MIC (S. aureus RN4220; RN4220, 4-pyridones table, read-out: Staphylococcus aureus MIC (μg/mL) RN4220): 4 µg/mL | MIC (S. aureus RN4220; [7]): 12.9 µM | MIC (M. tuberculosis H37Rv; 4-pyridones table): 50 µg/mL (≈ 161 µM)

CCCCCCc1cc(=O)c(Oc2cccnc2C#N)cn1C [PT167]
IC50 [2]: 0.979 ± 0.152 µM | MIC (M. tuberculosis H37Rv; 4-pyridones table): 100 µg/mL (≈ 321 µM)

CCCCCCc1cc(=O)c(Oc2ccccn2)cn1C [PT168]
IC50 [2]: 1.78 ± 0.315 µM | MIC (M. tuberculosis H37Rv; 4-pyridones table): 50 µg/mL (≈ 175 µM)

CCCCCCc1cc(=O)c(Oc2cccnc2N)cn1C [PT169]
IC50 [2]: 0.379 ± 0.041 µM | MIC (M. tuberculosis H37Rv; 4-pyridones table): 12.5 µg/mL (≈ 41.5 µM)

Cc1ccn(Cc2ccccc2Cl)c(=O)c1 [PT170]
IC50 (saFabI [3]): > 1 µM | Ki (saFabI [3]; Ki (nM), saFabI): 229 ± 5.2 nM | Ki (saFabI [3]; [8]): 849 ± 19.3 nM | Ki (saFabI [3]; [9]): 229 ± 5.2 nM | IC50 [2]: > 1.7 µM | MIC (S. aureus RN4220; [10]): > 500 µg/mL | MIC (S. aureus RN4220; [7]): > 500 µM | MIC (F. tularensis LVS): 50 µg/mL (≈ 214 µM) | MIC (M. tuberculosis H37Rv; 2-pyridones table): > 50 µg/mL | IC50 [4]: 0.202 ± 0.017 µM | IC50 (bpFabI): > 1 µM

CCCCCCc1ccn(Cc2ccccc2C)c(=O)c1 [PT171]
IC50 (saFabI [3]): 0.15 ± 0.022 µM | Ki (saFabI [3]; Ki (nM), saFabI): 11.9 ± 1.8 nM | Ki (saFabI [3]; [8]): 44.3 ± 6.6 nM | Ki (saFabI [3]; [9]): 11.9 ± 1.8 nM | Ki (ecFabI; Ki^app (nM), [S]/KS = 0.19): 116 ± 4.6 nM | IC50 [2]: 0.13 ± 0.021 µM | MIC (S. aureus RN4220; [10]): 5 µg/mL | MIC (F. tularensis LVS): 3.65 µg/mL (≈ 12.9 µM) | MIC (M. tuberculosis H37Rv; 2-pyridones table): 25 µg/mL (≈ 88.2 µM) | MIC (Bt38): 154 µg/mL (≈ 542 µM) | IC50 [4]: 0.083 ± 0.032 µM | IC50 (bpFabI): ~0.4 µM

CCCCCCc1ccn(Cc2ccccc2Cl)c(=O)c1 [PT172]
IC50 (saFabI [3]): 0.379 ± 0.088 µM | Ki (saFabI [3]; Ki (nM), saFabI): 11 ± 0.4 nM | Ki (saFabI [3]; [8]): 40.7 ± 1.3 nM | Ki (saFabI [3]; [9]): 11 ± 0.4 nM | IC50 [2]: 0.24 ± 0.044 µM | Staphylococcus aureus MIC (μg/mL) RN4220 (S. aureus RN4220; 2-pyridones table): 8 µg/mL | MIC (S. aureus RN4220; [10]): 5 µg/mL | MIC (S. aureus RN4220; [7]): 26.3 µM | MIC (F. tularensis LVS): 4.04 µg/mL (≈ 13.3 µM) | MIC (M. tuberculosis H37Rv; 2-pyridones table): 25 µg/mL (≈ 82.3 µM) | MIC (Bt38): 250 µg/mL (≈ 823 µM) | IC50 [4]: 0.061 ± 0.013 µM | IC50 (bpFabI): 0.26 ± 0.0093 µM
